Patent publication EP4810052A2, “HCRHR2 SELECTIVE POLYPEPTIDES” (Gubra A/S, priority 2023, dated 2026)
Like-named read-outs stand apart in the source and are kept apart here. Starred links: 1 amine or outer side, 2 acyl side, 3 side chain; linkers in the order of their positions; H or OH if unused. Non-standard residues stand in square brackets, D forms with d. Residues, ends and D or L forms follow the SMILES beside them. Groups on a side chain read outwards from the residue. *: point of attachment. C20 diacid = O=C(O)CCCCCCCCCCCCCCCCCCC(=O)*; γGlu = O=C(O)[C@H](CCC(=O)[*:2])N[*:1]; Nle = CCCC[C@H](N)C(=O)O; AEEA = NCCOCCOCC(=O)O

Legend:
hCRHR2 = target: T1, hCRHR2 (Homo sapiens, UniProt Q13324); assay: HTRF cAMP assay, determination of hCRHR2 potency (peptide libraries 5 conc., purified peptides 11 conc.); type: cell-based
T1 sequence (Q13324 1-411): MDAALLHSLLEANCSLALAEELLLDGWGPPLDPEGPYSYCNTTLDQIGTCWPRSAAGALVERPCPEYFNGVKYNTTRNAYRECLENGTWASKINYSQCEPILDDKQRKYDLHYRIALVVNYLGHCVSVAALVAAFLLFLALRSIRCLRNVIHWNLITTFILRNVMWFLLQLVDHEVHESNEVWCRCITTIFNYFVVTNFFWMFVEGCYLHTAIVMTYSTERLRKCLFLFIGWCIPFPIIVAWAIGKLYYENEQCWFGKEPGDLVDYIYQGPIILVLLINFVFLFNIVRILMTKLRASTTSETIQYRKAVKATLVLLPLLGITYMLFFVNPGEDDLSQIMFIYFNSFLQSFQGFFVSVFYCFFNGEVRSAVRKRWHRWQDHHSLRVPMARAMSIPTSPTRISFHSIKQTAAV
Procedure, shortened: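 Potency was read as cAMP accumulation in a stable CHO-K1 line expressing human CRHR2, used in suspension right after thawing. Detection relied on energy transfer from antibody-bound cryptate to d2-cAMP.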

hCRHR1 = target: T2, hCRHR1 (Homo sapiens, UniProt P34998); assay: HTRF cAMP assay, determination of hCRHR1 potency (peptide libraries 5 conc., purified peptides 11 conc.); type: cell-based
T2 sequence (P34998 24-415): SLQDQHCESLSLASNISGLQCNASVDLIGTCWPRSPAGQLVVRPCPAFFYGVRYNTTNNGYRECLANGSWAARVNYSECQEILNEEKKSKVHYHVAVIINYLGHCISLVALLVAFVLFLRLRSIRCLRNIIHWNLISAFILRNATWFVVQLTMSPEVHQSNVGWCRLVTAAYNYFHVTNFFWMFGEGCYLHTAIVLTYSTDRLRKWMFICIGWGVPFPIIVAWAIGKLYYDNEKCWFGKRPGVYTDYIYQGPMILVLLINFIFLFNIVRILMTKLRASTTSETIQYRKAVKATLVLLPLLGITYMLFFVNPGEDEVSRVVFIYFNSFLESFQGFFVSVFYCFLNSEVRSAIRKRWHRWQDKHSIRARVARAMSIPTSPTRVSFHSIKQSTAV
Procedure, shortened: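 CHO-K1 cells stably expressing human CRHR1, thawed from frozen stocks just before use, were stimulated in suspension with agonist peptides. cAMP was measured by HTRF competitive immunoassay (cryptate anti-cAMP antibody vs d2-cAMP).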

Row | Compound | EC50 (hCRHR2; library peptides, matched molecular pairs L vs Nle in position X^38, read-out: Potency hCRHR2 pEC50 (converted)) [nM] | EC50 (hCRHR1; library peptides, matched molecular pairs L vs Nle in position X^38, read-out: Potency hCRHR1 pEC50 (converted)) [nM] | EC50 (hCRHR2; Table 3, matched molecular pairs X^38 L vs Nle, peptide library of Example 4, read-out: hCRHR2 pEC50 (converted)) [nM] | EC50 (hCRHR1; Table 3, matched molecular pairs X^38 L vs Nle, peptide library of Example 4, read-out: hCRHR1 pEC50 (converted)) [nM]
1 | CC[C@H](C)[C@H](N)C(=O)N[C@H](C(=O)N[C@@H](CC(C)C)C(=O)N[C@@H](CO)C(=O)N[C@@H](CC(C)C)C(=O)N[C@@H](CC(=O)O)C(=O)N[C@H](C(=O)N1CCC[C@H]1C(=O)N[C@H](C(=O)NCC(=O)N[C@@H](CC(C)C)C(=O)N[C@@H](CC(C)C)C(=O)N[C@@H](CCC(N)=O)C(=O)N[C@H](C(=O)N[C@@H](CC(C)C)C(=O)N[C@@H](CC(C)C)C(=O)N[C@@H](CCC(=O)O)C(=O)N[C@@H](CCC(N)=O)C(=O)N[C@@H](C)C(=O)N[C@@H](CCCNC(=N)N)C(=O)N[C@@H](C)C(=O)N[C@@H](CCC(=O)O)C(=O)N[C@@H](C)C(=O)N[C@@H](CC(C)C)C(=O)N[C@@H](CCCNC(=N)N)C(=O)N[C@@H](CCC(N)=O)C(=O)N[C@@H](CCC(N)=O)C(=O)N[C@@H](C)C(=O)N[C@@H](CCCCNC(=O)COCCOCCNC(=O)COCCOCCNC(=O)CC[C@H](NC(=O)CC[C@H](NC(=O)CCCCCCCCCCCCCCCCCCC(=O)O)C(=O)O)C(=O)O)C(=O)N[C@H](C(=O)N[C@@H](CC(N)=O)C(=O)N[C@@H](C)C(=O)N[C@@H](CCC(=O)O)C(=O)N[C@H](C(=O)N[C@@H](CC(C)C)C(=O)N[C@@H](C)C(=O)N[C@@H](CCC(=O)O)C(=O)N[C@H](C(N)=O)C(C)C)[C@@H](C)CC)[C@@H](C)O)[C@@H](C)CC)[C@@H](C)CC)C(C)C)C(C)C [compound 58] (H-IVLSLDVPIGLLQILLEQARAEALRQQAK([AEEA-AEEA-γGlu-γGlu-C20 diacid])TNAEILAEV-NH2) | 0.316 | 100 |  | 
2 | CCCC[C@H](NC(=O)[C@@H](NC(=O)[C@H](CCC(=O)O)NC(=O)[C@H](C)NC(=O)[C@H](CC(N)=O)NC(=O)[C@@H](NC(=O)[C@H](CCCCNC(=O)COCCOCCNC(=O)COCCOCCNC(=O)CC[C@H](NC(=O)CC[C@H](NC(=O)CCCCCCCCCCCCCCCCCCC(=O)O)C(=O)O)C(=O)O)NC(=O)[C@H](C)NC(=O)[C@H](CCC(N)=O)NC(=O)[C@H](CCC(=O)O)NC(=O)[C@H](CCCNC(=N)N)NC(=O)[C@H](C)NC(=O)[C@H](CO)NC(=O)[C@H](CCC(=O)O)NC(=O)[C@H](C)NC(=O)[C@H](CCCNC(=N)N)NC(=O)[C@H](C)NC(=O)[C@H](CCC(N)=O)NC(=O)[C@H](CCC(=O)O)NC(=O)[C@H](CC(C)C)NC(=O)[C@H](CC(C)C)NC(=O)[C@@H](NC(=O)[C@H](CCC(N)=O)NC(=O)[C@H](CC(C)C)NC(=O)[C@H](CC(C)C)NC(=O)CNC(=O)[C@@H](NC(=O)[C@@H]1CCCN1C(=O)[C@@H](NC(=O)[C@H](CC(=O)O)NC(=O)[C@H](CC(C)C)NC(=O)[C@H](CO)NC(=O)[C@H](CC(C)C)NC(=O)[C@@H](NC(=O)[C@@H](N)[C@@H](C)CC)C(C)C)C(C)C)[C@@H](C)CC)[C@@H](C)CC)[C@@H](C)O)[C@@H](C)CC)C(=O)N[C@@H](C)C(=O)N[C@@H](CCC(=O)O)C(=O)N[C@H](C(N)=O)C(C)C [SEQ ID NO: 42] (H-IVLSLDVPIGLLQILLEQARAESAREQAK([AEEA-AEEA-γGlu-γGlu-C20 diacid])TNAEI[Nle]AEV-NH2) |  |  | 0.2 | 251
